In the test the test system is Nucleic Acid. Description: Apparent binding constant towards calf thymus DNA. The test is classed as nucleic-acid assay. The note with it: Bos taurus.

With `CC/N=c1/cc2oc3cc(NCC)c(C)cc3nc-2c2ccccc12`, the K app came out at 26000 M⁻¹.

The values are drawn from ChEMBL document CHEMBL1139502, “Oxazine 170 induces DNA:RNA:DNA triplex formation” (J Med Chem, 2005).
